# Key:
# [1] = tested on: Acinetobacter baumannii ATCC 17978; test: microbe, parasite or virus in culture; format: cell-based; conditions: ATCC 17978
# Procedure: (§1) Testing was performed according to CLSI (Clinical Laboratory Standards Institute) guidelines. Read out of the study was determination of MIC—minimal inhibitory concentration expressed in μg/mL.
# (§2) Out of these PBS solutions, 76.8 μL was transferred to 1423.2 μL of MH media in deep well for testing compound alone. […] Out of these working solutions 100 μL were transferred to wells in the third column of 96-well assay plates. Assay plates were previously filled with 50 μL of MH media in all wells except for the wells in the third column.
# (§3) Microorganisms used were all revived from skim milk storage at −70° C. by plating them on MH agar plates. The following day a single colony of each microorganism was again streaked on fresh agar plates. The next day, using direct colony suspension method, broth solutions that achieve turbidity equivalent to 0.5 McFarland standard for each microorganism were prepared. […] Out of these suspensions, actual inoculums were prepared by diluting them 100× with MH media giving final microorganism count of 2-8×10^5 CFU/mL. For each strain of microorganisms, 20 mL of these inoculum solutions were prepared. From the second to the twelfth column of 96-well plates, 50 μL of these solutions were transferred per well. To the first column, 50 μL per well of pure growth media was added. In this manner the first column was used as sterility control of media used, the second column was used as control of microorganism's growth and the rest of the plate was used for MIC determination. All plates were incubated for 16-24 h at 37° C.
# (§4) MIC value was determined by visual inspection of bacterial growth within 96-well plates. The first column in which there was no visible growth of bacteria was determined as MIC value for peptide or combination tested in that particular row.
# [2] = tested on: Escherichia coli ATCC 25922; test: microbe, parasite or virus in culture; format: cell-based; conditions: ATCC 25922
# Procedure: as §1, §2, §3, §4
# [3] = tested on: Pseudomonas aeruginosa ATCC 27853; test: microbe, parasite or virus in culture; format: cell-based; conditions: ATCC 27853
# Procedure: as §1, §2, §3, §4
# [4] = tested on: Klebsiella pneumoniae ATCC 700603; test: microbe, parasite or virus in culture; format: cell-based; conditions: ATCC 700603
# Procedure: as §1, §2, §3, §4
# [5] = tested on: Acinetobacter baumannii ATCC BAA-1605; test: microbe, parasite or virus in culture; conditions: ATCC BAA-1605
# Procedure: as §1, §2, §3, §4
# [6] = tested on: Pseudomonas aeruginosa ATCC BAA-2108; test: microbe, parasite or virus in culture; conditions: ATCC BAA-2108
# Procedure: as §1, §2, §3, §4
# [7] = tested on: Escherichia coli B1927, clinical isolate; test: microbe, parasite or virus in culture; conditions: B1927, clinical isolate
# Procedure: as §1, §2, §3, §4
# [8] = tested on: Klebsiella pneumoniae ATCC BAA-2524; test: microbe, parasite or virus in culture; conditions: ATCC BAA-2524
# Procedure: as §1, §2, §3, §4
# [9] = tested on: Klebsiella pneumoniae B1945, clinical isolate; test: microbe, parasite or virus in culture; conditions: B1945, clinical isolate
# Procedure: as §1, §2, §3, §4
# [10] = tested on: Escherichia coli ATCC BAA-2452; test: microbe, parasite or virus in culture; conditions: ATCC BAA-2452
# Procedure: as §1, §2, §3, §4
# [11] = tested on: Acinetobacter baumannii B2026, clinical isolate; test: microbe, parasite or virus in culture; conditions: B2026, clinical isolate
# Procedure: as §1, §2, §3, §4
# [12] = tested on: Pseudomonas aeruginosa B1954, clinical isolate; test: microbe, parasite or virus in culture; conditions: B1954, clinical isolate
# Procedure: as §1, §2, §3, §4
# [13] = in vitro; conditions: human
# Procedure: (§5) ATP levels were measured by adding 50 μL of CellTiter-Glo reagent to each well and after 5 minutes of incubation luminescence was measured with SpectraMax i3.
# (§6) 96-well plates were seeded with HEK293 cells at concentration of 30,000 cells per well in 100 μL of DMEM growth media supplemented with 1% NEAA and 10% FBS. Border wells were filled with 100 μL of sterile PBS. The next day compounds were added to cells. Compounds were first 2× diluted in 96-well V-bottom plate in PBS. After that compounds were mixed with media in 96-deep-well plate for final concentrations. Growth media from 3 plates was aspirated and replaced with 100 μL of prepared compounds. Compounds were tested in duplicate. ATP levels were measured by adding 50 μL of CellTiter-Glo reagent to each well and after 5 minutes of incubation luminescence was measured with SpectraMax i3. […] The potential effects were then calculated and presented as IC50 values (μg/mL).
# [14] = tested on: A. baumannii LMG01041; test: microbe, parasite or virus in culture; format: cell-based, Acinetobacter baumannii; conditions: LMG01041
# Procedure: (§7) Escherichia coli, Klebsiella pneumoniae, Pseudomonas aeruginosa, Acinetobacter baumannii, Enterobacter aerogenes were grown in Luria-Bertani (LB) broth shaken (200 rpm) or on LB agar at 37° C. […] MICs tests were performed in duplicate by a liquid growth inhibition microdilution assays in sterilized polypropylene microtiter plates according to Wiegand and […] [27]. […] The suspension was diluted in a ratio of 1:100 using Mueller Hinton Broth (MHB) and the final inoculum is 5*10^5 CFU/mL. […] The antimicrobials were diluted serially by 1/2 one by one and 50 uL diluted bacterial suspension were added to each well to make the final volume to be 100 uL. Growth control was accomplished by remove 10 uL from well 11 and dilute 1000 times to plate 1/10 suspension on the solid medium. […] The number of colonies on the control agar plate should be around 50 to ensure the concentration of the inoculum and the effectiveness of the experiment. The lowest concentration of the antimicrobials that inhibits visible growth of the indicator is identified as MIC.
# [15] = tested on: human red blood cells (HRBc); test: Hemolytic test; conditions: red cells of human, 1 h
# Procedure: Fresh human red blood cells (HRBc) were used for the hemolytic tests. After incubation with different concentrations of test compounds at 37° C. for 1 hour, the absorbance of the supernatant were measured.
# [16] = tested on: HEK293 cells; test: in vitro
# Procedure: as §5, §6
# [17] = tested on: L. lactis MG1363; conditions: MG1363
# [18] = tested on: E. aerogenes LMG 02094; test: microbe, parasite or virus in culture; format: cell-based, Enterobacter aerogenes; conditions: LMG 02094
# Procedure: as §7
# [19] = tested on: E. coli LMG15862; test: microbe, parasite or virus in culture; format: cell-based, Escherichia coli; conditions: LMG15862
# Procedure: as §7
SMILES,MIC [1],MIC [2],MIC [3],MIC [4],MIC [5],MIC [6],MIC [7],MIC [8],MIC [9],MIC [10],MIC [11],MIC [12],IC50 [13],other results
CC[C@@H](C)[C@@H](NC(=O)[C@@H](CCCNC(=N)N)NC(=O)[C@@H](CCCNC(=N)N)NC(=O)[C@@H](Cc1ccccc1)NC(=O)[C@@H](CC(C)C)NC(=O)[C@@H](CCCNC(=N)N)NC(=O)[C@H](N)CCCNC(=N)N)C(=O)N[C@H](CC(C)C)C(=O)N[C@H](CCCNC(=N)N)C(=O)N[C@H](Cc1c[nH]c2ccccc12)C(=O)N[C@H](CC(C)C)C(N)=O [D6],2 µg/mL,2 µg/mL,4 µg/mL,4 µg/mL,8 µg/mL,8 µg/mL,2 µg/mL,4 µg/mL,8 µg/mL,2 µg/mL,4 µg/mL,4 µg/mL,52.1 µg/mL,
CC[C@@H](C)[C@@H](NC(=O)[C@H](N)CCCNC(=N)N)C(=O)N[C@@H](C(=O)N[C@H](CCC(N)=O)C(=O)N[C@H](CCCNC(=N)N)C(=O)N[C@@H](C(=O)N[C@H](CCCCN)C(=O)N[C@H](CCCCN)C(=O)N[C@H](Cc1c[nH]c2ccccc12)C(=O)N[C@H](CC(C)C)C(=O)N[C@H](CCCNC(=N)N)C(N)=O)[C@H](C)CC)C(C)C [D8],16 µg/mL,8 µg/mL,64 µg/mL,>128 µg/mL,16 µg/mL,>128 µg/mL,4 µg/mL,>128 µg/mL,32 µg/mL,8 µg/mL,16 µg/mL,128 µg/mL,> 64 µg/mL,
CC[C@@H](C)[C@@H](NC(=O)[C@H](N)CCCNC(=N)N)C(=O)N[C@@H](C(=O)N[C@H](CCC(N)=O)C(=O)N[C@H](CCCNC(=N)N)C(=O)N[C@@H](C(=O)N[C@H](CCCCN)C(=O)N[C@H](CCCCN)C(=O)N[C@H](Cc1c[nH]c2ccccc12)C(=O)N[C@H](CC(C)C)C(=O)N[C@H](CCCNC(=N)N)C(N)=O)[C@H](C)CC)C(C)C [GNP-D8],,,,,,,,,,,,,≥ 42.8 µM,MIC value [14]: 8 µM; MIC value [5]: 10.7 µM; MIC value [6]: >85.62 µM; MIC value [8]: >85.62 µM; MIC value [10]: 5.35 µM; MIC value [11]: 10.7 µM; MIC value [12]: 85.62 µM; HC50 (hemolytic activity) [15]: >200 µM; Effect on ATP levels [16]: do not affect the ATP levels; MIC value of antimicrobial compounds alone [17]: 16 µM; MIC value [18]: 32 µM; MIC value [19]: 4 µM
